Measured values taken from US12522593B2, “Azacycloalkyl carbonyl cyclic amine compound” (Alivexis, Inc., priority 2022, dated 2026).

Columns and labels:
human recombinant CTSC = human recombinant CTSC (Homo sapiens (Human), UniProt P53634); assay: CTSC inhibition assay (in vitro), fluorescent substrate GF-AFC; type: biochemical; conditions: 30 μmol/L GF-AFC, pH 5.0, 25° C.
Experimental: 1. CTSC Inhibition Assay (In Vitro)
A test specimen was evaluated by a CTSC inhibition assay using a fluorescent substrate GF-AFC (Gly-Phe-7-Amino-4-trifluoromethylcoumarin, MP Biomedical, 03AFC03325). Since the GF-AFC is converted by CTSC to aminotrifluoromethylcoumarin having a specific fluorescence wavelength and the produced amount is proportional to CTSC activity, quantitative analysis was performed by measuring a fluorescence intensity with a plate reader. CTSC inhibition assay for each compound was performed using a polystyrene-made non-adhesive surface-treated black 384 well plate under the following conditions.
A human recombinant CTSC (R&D systems, 1071-CY) was dissolved in a CTSC active cocktail (20 ng/mL of human recombinant cathepsin L (R&D systems, 952-CY, 25 mmol/L MES/NaOH (pH: 6.0), 5 mmol/L dithiothreitol (DTT)) so as to be 100 ng/mL and incubated at 18° C. for 30 minutes. The solution was diluted with a CTSC assay buffer (50 mmol/L MES/NaOH (pH: 5.0), 50 mmol/L NaCl, 0.001% Triton X-100, mmol/L DTT) so as to be 2 ng/mL in a case of performing CTSC inhibition assay.
The test specimen was dissolved in dimethylsulfoxide (DMSO) at 10 mmol/L to prepare a stock solution. In a case where a solution in which the stock solution was diluted 15-fold with DMSO was used as the maximum evaluation concentration (0.667 mmol/L), 5-fold dilution was repeated in DMSO from the solution to prepare a serially diluted solution. 248.8 μL of the CTSC assay buffer was added to 1.12 μL of the serially diluted sample prepared in the DMSO to prepare a solution of a CTSC inhibition assay compound.
The final composition of the CTSC inhibition assay mixture was 0.66 ng/mL activated CTSC, 50 mmol/L MES/NaOH (pH: 5.0), 50 mmol/L NaCl, 0.001% Triton X-100, 5 mmol/L DTT, 30 μmol/L GF-AFC, and 0.15% DMSO, and the procedure was as follows. That is, 4 μL of the compound solution and 4 μL of the 2 ng/mL activated CTSC solution were mixed with each other in a 384 well plate and incubated at 25° C. for 30 minutes. Thereafter, 4 μL of the GF-AFC solution dissolved in the CTSC assay buffer was added to the mixture so as to be 90 μmol/L. After mixing to be uniform, a fluorescence emission intensity at 505 nm in a case of being excited at 390 nm after incubating at 25° C. for 1 hour was measured with a plate reader. A 4-parameter regression analysis was performed with GraphPad Prism (manufactured by GraphPad Software) from a plot of the fluorescence intensity at 505 nm and the sample concentration, and an IC50 value was calculated.
Results of test compounds of Formula (I) are shown in Table 1 as IC50 (nM) values for which 50% inhibition concentration is calculated based on CTSC inhibition (%). In the table, Ex indicates an example number.

CTSC in U937 cells = CTSC in U937 cells (Homo sapiens (Human), UniProt P53634); assay: Intracellular CTSC inhibition assay (in vitro), LLOMe-induced cell death in U937 cells; type: cell-based; conditions: 3 hours culture, CellTiter-Glo
CTSC in U937 cells, sequence (P53634 25-463): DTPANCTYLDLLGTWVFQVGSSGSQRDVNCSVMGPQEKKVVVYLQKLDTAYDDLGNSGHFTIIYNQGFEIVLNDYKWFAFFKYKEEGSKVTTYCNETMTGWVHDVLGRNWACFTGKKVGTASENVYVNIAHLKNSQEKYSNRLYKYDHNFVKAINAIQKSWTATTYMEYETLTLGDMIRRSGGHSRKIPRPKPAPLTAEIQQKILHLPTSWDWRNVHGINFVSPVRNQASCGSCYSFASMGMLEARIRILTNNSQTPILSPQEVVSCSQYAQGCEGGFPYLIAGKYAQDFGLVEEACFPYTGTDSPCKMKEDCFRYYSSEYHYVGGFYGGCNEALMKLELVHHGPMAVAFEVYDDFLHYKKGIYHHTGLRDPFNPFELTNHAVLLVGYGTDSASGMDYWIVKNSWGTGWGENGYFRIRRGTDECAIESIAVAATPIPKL
Experimental: 2. Intracellular CTSC Inhibition Assay (In Vitro)
A test specimen was evaluated by a degree of cell death in a case where a substrate LLOMe (L-Leucyl-L-Leucine methyl ester, hydrobromide salt, Sigma, 555045152) was added to U937 cells. The LLOMe is taken up into the cells by endocytosis and cleaved by CTSC. A product thereof induces lysosomal damage in cells and causes cell death in leukocytes and the like. Therefore, since the degree of cell death correlates with an amount of degradation of LLOMe, that is, with CTSC activity, by quantitatively analyzing the cell death, CTSC inhibitory activity of the test specimen in the cell was determined. CTSC inhibition assay was performed using a polystyrene-made white 384 well plate.
As the test specimen, a stock solution dissolved in DMSO was prepared so as to be 0.2 mmol/L, and in a case where a solution in which the stock solution was diluted 50-fold with a RPMI-1640 medium including 10% FBS was used as the maximum evaluation concentration (4000 nmol/L), a serially diluted solution was prepared by diluting the solution 3-fold with the medium. Thereafter, a 4-fold concentrated test specimen solution with the target final concentration was prepared.
U937 cells were cultured in a RPMI-1640 medium including 10% FBS, and diluted to prepare 90,000 cells/mL of cell suspension on the day of assay. 10 μL of the cell suspension was seeded per well. Next, 10 μL of the test specimen solution having a concentration 4 times the target final concentration was added thereto, and the mixture was allowed to stand for 30 minutes. Thereafter, 20 μL of a 300 μmol/L LLOMe solution dissolved in a RPMI-1640 medium including 10% FBS was added thereto, and the cells were cultured for 3 hours. After completion of the culture, 40 μL of CellTiter-Glo (registered trademark) reagent (Promega, G7570) was added to each well and mixed. After 15 minutes, 20 μL of the reaction solution in each well was transferred to a white 384 well plate, and a chemiluminescence intensity was measured with a plate reader. A 4-parameter regression analysis was performed with GraphPad Prism (manufactured by GraphPad Software) from a plot of the luminescence intensity and the sample concentration, and an IC50 value was calculated.
Results of test compounds of Formula (1) are shown in Table 2 as IC50 (nM) values for which 50% inhibition concentration is calculated based on CTSC inhibition (%). In the table, Ex indicates an example number.

human recombinant CTSC, sequence (P53634 25-134): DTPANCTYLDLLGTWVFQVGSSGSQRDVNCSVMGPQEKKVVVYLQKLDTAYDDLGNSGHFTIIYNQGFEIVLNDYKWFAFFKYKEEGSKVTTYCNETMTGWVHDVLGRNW
human recombinant CTSC, sequence (P53634 231-394): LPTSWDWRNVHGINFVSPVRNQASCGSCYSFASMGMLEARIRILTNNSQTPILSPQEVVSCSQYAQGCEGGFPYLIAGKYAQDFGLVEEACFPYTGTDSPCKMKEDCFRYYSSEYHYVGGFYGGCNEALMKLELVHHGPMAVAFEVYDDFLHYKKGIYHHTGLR
human recombinant CTSC, sequence (P53634 395-463): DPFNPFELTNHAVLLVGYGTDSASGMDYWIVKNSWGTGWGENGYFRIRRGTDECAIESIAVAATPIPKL

| SMILES | IC50 (human recombinant CTSC) [nM] | IC50 (CTSC in U937 cells) [nM] |
| --- | --- | --- |
| CC(C)C1(c2nc(C3CC(C)(C)C3)no2)CN(C(=O)[C@@H]2CC[C@@]3(CCO3)CN2)C1 [Example 29] | 1.47 | 11.3 |
| CC(C)C1(c2nnc(C3CCC(F)(F)CC3)o2)CCN(C(=O)[C@@H]2C[C@@H](O)C3(CCC3)CN2)CC1 [Example 14] | 1.35 | 4 |
| CC(C)C1(c2noc(C3CCC(F)(F)CC3)n2)CCN(C(=O)[C@@H]2C[C@@H](O)CCN2)CC1 [Example 34] | > 1000 | > 333 |
| CC(C)C1(c2noc(C3CCC(F)(F)CC3)n2)CCN(C(=O)[C@@H]2C[C@@H](O)C(C)(C)CN2)CC1 [Example 36] | 1.88 | 0.71 |
| CC(C)C1(c2noc(C3CCC(F)(F)CC3)n2)CCN(C(=O)[C@@H]2C[C@H](O)CN2)CC1 [Example 25] | > 200 | > 200 |
| O=C([C@@H]1C[C@@H](O)C2(CCC2)CN1)N1CCC(c2noc(C3CCCOC3)n2)(C(F)(F)F)CC1 (some centres unmarked) [Example 60] | 4.09 | 1.39 |
| CN(CC1CCC(F)(F)CC1)C(=O)C1(C(F)(F)F)CCN(C(=O)[C@@H]2C[C@@H](O)C3(CCC3)CN2)CC1 [Example 8] | 1.6 | 1.62 |
| CC(C)C1(c2noc(C3CCC(F)(F)CC3)n2)CCN(C(=O)[C@@H]2C[C@H](F)CN2)CC1 [Example 24] | 151 | > 1000 |
| O=C(c1nc(C2(C(F)(F)F)CCN(C(=O)[C@@H]3C[C@@H](O)C4(CCC4)CN3)CC2)no1)N1CCC(F)(F)CC1 [Example 48] | 3.07 | 4 |
| CC1(C)CN[C@H](C(=O)N2CCC(c3nc(C4CCC(F)(F)CC4)no3)(C(F)(F)F)CC2)C[C@H]1O [Example 57] | 3.57 | 0.55 |
| CC(C)C1(c2noc(C3CCC(F)(F)CC3)n2)CCN(C(=O)[C@@H]2CCC3(CC3)CN2)CC1 [Example 46] | 53.5 | 42.5 |
| CC(C)C1(c2noc(C3CCC(F)(F)CC3)n2)CCN(C(=O)[C@@H]2C[C@H](S(C)(=O)=O)CN2)CC1 [Example 30] | > 1000 | > 1000 |
| O=C([C@@H]1C[C@@H](O)C2(CCC2)CN1)N1CCC(c2nc(C3CC(F)(F)C3)no2)(C(F)(F)F)CC1 [Example 2, (4-(3-(3,3-Difluorocyclobutyl)-1,2,4-oxadiazol-5-yl)-4-(trifluoromethyl)piperidin-1-yl)((7S,9R)-9-hydroxy-6-azaspiro[3.5]nonan-7-yl)methanone] | 2.36 | 0.89 |
| CC1(C)CN[C@H](C(=O)N2CCC(c3noc(C4CCC(F)(F)CC4)n3)(C(F)(F)F)CC2)C[C@H]1O [Example 56, (4-(5-(4,4-Difluorocyclohexyl)-1,2,4-oxadiazol-3-yl)-4-(trifluoromethyl)piperidin-1-yl)((2S,4R)-4-hydroxy-5,5-dimethylpiperidin-2-yl)methanone] | 2.06 | 0.71 |
| O=C([C@@H]1C[C@@H](O)C2(CCC2)CN1)N1CCC(c2noc(C3CCCCO3)n2)(C(F)(F)F)CC1 (some centres unmarked) [Example 59] | 3.61 | 0.7 |
| CC1CC[C@@H](C(=O)N2CCC(c3noc(C4CCC(F)(F)CC4)n3)(C(C)C)CC2)NC1 (some centres unmarked) [Example 43] | > 100 | 57.3 |
| CC(C)C1(c2noc(C3CCC(F)(F)CC3)n2)CCN(C(=O)C2CCC3(CCC3)CN2)CC1 (centres unmarked) [Example 42] | 7.19 | 2.28 |
| CS[C@@H]1CN[C@H](C(=O)N2CCC(c3noc(C4CCC(F)(F)CC4)n3)(C(C)C)CC2)C1 [Example 28] | 254 | 596 |
| CC(C)C1(c2nc(C3CC(F)(F)C3)no2)CN(C(=O)[C@@H]2C[C@@H](O)C3(CCC3)CN2)C1 [Example 18] | 3.12 | 2.33 |

Further lines, with some results ahead:

| IC50 (human recombinant CTSC) [nM] | SMILES | IC50 (CTSC in U937 cells) [nM] |
| --- | --- | --- |
| 0.37 | O=C([C@@H]1C[C@@H](O)C2(CCC2)CN1)N1CCC(c2nccc(N3CCC(F)(F)CC3)n2)CC1 [Example 94] | 3.86 |
| 3.02 | O=C([C@@H]1C[C@@H](O)C2(CCC2)CN1)N1CCC(c2nnn(-c3ccc(F)cc3)n2)(C(F)(F)F)CC1 [Example 95] | 0.2 |
| 5.4 | COc1cccc(-n2nnc(C3CCN(C(=O)[C@@H]4C[C@@H](O)C5(CCC5)CN4)CC3)n2)c1 [Example 100] | 3.48 |
| 0.93 | CC(C)C1(c2noc(C3CCC(F)(F)CC3)n2)CCN(C(=O)[C@@H]2C[C@@H](O)C3(CCC3)CN2)CC1 [Example 82] | 0.25 |
| 1.43 | CC(C)C1(c2noc(C3CCC(F)(F)CC3)n2)CCN(C(=O)[C@@H]2CC[C@@]3(CCO3)CN2)CC1 [Example 86] | 1.06 |
| 4.15 | O=C([C@@H]1C[C@@H](O)C2(CCC2)CN1)N1CCC(c2nccc(-n3cc(F)cn3)n2)CC1 [Example 99] | 1.12 |
| 1.05 | O=C([C@@H]1C[C@@H](O)C2(CCC2)CN1)N1CCC(c2nnn(C3CCC(F)(F)CC3)n2)(C(F)(F)F)CC1 [Example 66] | 0.46 |
| 1.63 | O=C([C@@H]1C[C@@H](O)C2(CCC2)CN1)N1CCC(c2noc(C3CC(F)(F)C3)n2)(c2cccs2)CC1 [Example 70] | 1.1 |
| 1.31 | O=C([C@@H]1C[C@@H](O)C2(CCC2)CN1)N1CCC(c2cn(C3CCC(F)(F)CC3)nn2)(C(F)(F)F)CC1 [Example 81] | 13.7 |
| 3.25 | O=C([C@@H]1C[C@@H](O)C2(CCC2)CN1)N1CCC(c2nnn(C3CC(F)(F)C3)n2)(C(F)(F)F)CC1 [Example 67, (4-(2-(3,3-Difluorocyclobutyl)-2H-tetrazol-5-yl)-4-(trifluoromethyl)piperidin-1-yl)((7S,9R)-9-hydroxy-6-azaspiro[3.5]nonan-7-yl)methanone] | 1.41 |
| 2.41 | CC1(C)CN[C@H](C(=O)N2CCC(c3nnn(-c4ccc(F)c(F)c4)n3)CC2)C[C@H]1O [Example 103] | 0.5 |
| 187 | CC1(O)CC[C@@H](C(=O)N2CCC(c3noc(C4CC(F)(F)C4)n3)(C(F)(F)F)CC2)NC1 (some centres unmarked) [Example 76] | > 111 |
| 4.15 | O=C([C@@H]1C[C@@H](O)C2(CCC2)CN1)N1CCC(c2cn(-c3ccc(F)cc3)nn2)CC1 [Example 98] | 3.8 |
| 2.17 | O=C([C@@H]1C[C@@H](O)C2(CCC2)CN1)N1CCC(c2ccsc2)(c2noc(C3CC(F)(F)C3)n2)CC1 [Example 79] | 0.75 |
| 3.28 | O=C([C@@H]1CC[C@@]2(CCO2)CN1)N1CCC(c2noc(C3CCC(F)(F)CC3)n2)(C(F)(F)F)CC1 [Example 73] | 4.05 |
